Assay results published in US20230018014A1, “NOVEL COMPOUNDS AND FORMULATIONS” (PRO-AL MEDICO-TECHNOLOGIES, INC., priority 2019, published 2023).

Columns and labels:
[1] = test system: chick embryo chorioallantoic membrane (CAM); experiment: chick embryo chorioallantoic membrane (CAM) angiogenesis model; assay type: in vivo
Source text: (§1) This study aimed to investigate the positive protective role of T3, T3 nanoparticles and nanoparticles of T3 and phosphocreatine (PCR) in hypoxia-mediated cardiac cell insults, as well as its influences on vascularization and neuronal protection, under hypoxic condition. […] Mitochondrial function and sarcomere integrity were studied using an ATP-bioluminescence assay, and cardiac Troponin T levels using flow cytometry, respectively.

neonatal cardiomyocytes [2] = experiment: neonatal cardiomyocyte contraction under normoxic and hypoxic condition; assay type: cell-based
[3] = test system: T3-induced cells (HS5) and PC12 neuronal cells; experiment: ATP-bioluminescence in T3-induced cells (HS5) and PC12 neuronal cells under hypoxia (Example 6); assay type: cell-based; details: hypoxia 24 hours; Epinephrine 0.5 μM
Procedure: (§2) The cells were then cultured under hypoxia for 24 hours. Results using ATP-bioluminescence and LDH release assays.

neonatal cardiomyocytes [4] = experiment: ATP-bioluminescence assay in isolated neonatal cardiomyocytes under hypoxia; assay type: cell-based; details: 4% oxygen, 5% CO2, 37° C., 24 hours
Procedure: as §1
(§3) The cells were cultured in a hypoxia incubator with 4% oxygen, 5% CO2 at 37° C. for 24 hours. Following incubation, the cells were collected and compared with those of normal condition. Mitochondrial function and sarcomere integrity were studied using an ATP-bioluminescence assay, and cardiac Troponin T levels using flow cytometry after adding troponin T antibody conjugated with FITC.

[5] = test system: Neuron-Specific Enolase (NSE); experiment: Neuron-Specific Enolase ELISA in pig blood plasma after cardiac arrest and resuscitation; assay type: in vivo; details: 2 hours post-ROSC
Procedure: The blood samples were collected from pigs subjected to cardiac arrest and resuscitation as described in Example 7. […] At 2 hours post-ROSC, blood samples were collected from a peripheral vein into tubes with EDTA and centrifuged for 15 minutes. The plasma samples were then used for the NSE assay based on the manufacturer's instructions.

neonatal cardiomyocytes [6] = experiment: cardiac Troponin T levels by flow cytometry in neonatal cardiomyocytes under hypoxia; assay type: cell-based; details: 4% oxygen, 5% CO2, 37° C., 24 hours
Procedure: as §1, §3

swine = experiment: porcine cardiac arrest model; assay type: in vivo
Procedure: In this study, swine were subjected to 7 minutes of cardiac arrest followed by manual CPR for up to 20 minutes with defibrillation every 2 minutes as necessary. […] In animals that achieved ROSC (unassisted systolic BP>80 mmHg for 1 min), further pharmacologic support was limited to 1 additional dose of the selected drug for hypotension. Hemodynamics, left ventricular (LV) function, plasma cardiac troponin I (cTnl) and other parameters were assessed at baseline and for up to 4 hours post-ROSC.

[7] = test system: T3-induced cells (HS5) and PC12 neuronal cells; experiment: LDH release assay in T3-induced cells (HS5) and PC12 neuronal cells under hypoxia (Example 6); assay type: cell-based; details: hypoxia 24 hours; Epinephrine 0.5 μM
Procedure: as §2

[8] = within the first 5 minutes post-ROSC

Question: For N[C@@H](Cc1cc(I)c(Oc2ccc(O)c(I)c2)c(I)c1)C(=O)O [T3, triiodothyronine], which “enhanced angiogenesis compared to the control group” value [1] is on record?
Answer: The value was about 3 fold.

Question: What about the “Branch points (SEM)” value ([1]; 10 μg) of the same compound?
Answer: Its value is 158.4 ± 5.5.

Question: And the “improvement in observed branch points in comparison with bFGF” value ([1]; T3 10 μg, Nano-T3 1 μg)?
Answer: The value was 37%.

Question: What about the “contraction levels in cardiomyocytes (in words)” value (neonatal cardiomyocytes [2]; hypoxia) of the same compound?
Answer: Its value is “close to those of the cells under normal conditions”.

Question: What does the source list for CNC[C@H](O)c1ccc(O)c(O)c1 [Epinephrine]?
Answer: ATP levels (in words) [3]: increased slightly; cardiac ATP levels (in words) (neonatal cardiomyocytes [4]): close to untreated hypoxic cardiomyocytes; Contraction/min (neonatal cardiomyocytes [2]; hypoxia): 28 min⁻¹; Rhythm (neonatal cardiomyocytes [2]; hypoxia): Irregular; Contraction/min (neonatal cardiomyocytes [2]; normoxia): 186 min⁻¹; Rhythm (neonatal cardiomyocytes [2]; normoxia): Regular; increase of NSE over baseline [5]: 64%; Troponin T levels (in words) (neonatal cardiomyocytes [6]): close to untreated hypoxic cardiomyocytes; higher concentration of cTnl (swine; post-ROSC, versus the nanoparticle groups): 2 fold; rate of ROSC (in words) (swine; swine, 7 minutes of cardiac arrest, intravenous, nanoparticles 0.125 mg/kg, Epinephrine 0.015 mg/kg): higher; survival duration (swine; swine, post-ROSC, up to 4 hours, nanoparticles 0.125 mg/kg, Epinephrine 0.015 mg/kg): 116 ± 26 min; coronary sinus PCO2 compared to vehicle (in words) (swine; [8]): not; coronary sinus pH compared to vehicle (in words) (swine; [8]): not; LDH levels (in words) [7]: showed an increase

Question: For “bFGF: basic fibroblast growth factor, positive comparator in the CAM model”, which “Branch points (SEM)” value ([1]; bFGF, dose not given) is on record?
Answer: Its value is 115.4 ± 3.2.
